From patent US20230190735A1 (TFF Pharmaceuticals, Inc., priority 2021, published 2023)
pKi: −log10 of the molar value. Where two headings read alike, the source gives them in different places.

Assays:
[1] = target: CYP2C9 (Homo sapiens, UniProt P11712); details: in vitro studies; cited from earlier work
[2] = target: CYP3A (Homo sapiens, UniProt P08684); details: in vitro studies; CYP3A4; cited from earlier work
[3] = cited from earlier work; for reduction of mean AUC with high-fat meals: multiple doses
[4] = major metabolite of voriconazole; cited from earlier work
[5] = PK of systemically administered (oral or IV) voriconazole, VFEND package insert and literature; assay type: in vivo, human; details: Imax = Cmax/MW
[6] = target: T1, CYP2B6 (Homo sapiens, UniProt P20813); details: total drug, Ki values based on Jeong 2009; cited from earlier work
T1 sequence (P20813 1-491): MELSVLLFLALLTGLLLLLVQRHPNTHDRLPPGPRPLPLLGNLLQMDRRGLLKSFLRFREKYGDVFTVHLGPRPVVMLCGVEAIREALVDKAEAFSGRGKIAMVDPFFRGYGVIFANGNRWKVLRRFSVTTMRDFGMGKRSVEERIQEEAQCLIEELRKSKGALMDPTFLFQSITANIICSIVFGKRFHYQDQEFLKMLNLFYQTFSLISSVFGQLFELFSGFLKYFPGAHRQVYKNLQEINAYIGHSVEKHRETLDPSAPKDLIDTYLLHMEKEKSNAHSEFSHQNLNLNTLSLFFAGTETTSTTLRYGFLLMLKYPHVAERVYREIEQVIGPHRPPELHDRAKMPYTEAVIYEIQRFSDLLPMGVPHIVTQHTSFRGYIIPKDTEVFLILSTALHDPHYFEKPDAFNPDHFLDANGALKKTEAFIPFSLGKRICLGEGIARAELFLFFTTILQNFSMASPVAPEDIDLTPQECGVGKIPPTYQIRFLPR

[7] = system: CYP3A; details: CYP3A; total drug; Ki values based on Jeong 2009; cited from earlier work
[8] = independent of plasma concentration (approx. 0.9-15 μg/mL); cited from earlier work
[9] = 3 mg/kg IV q12h, geometric mean (% CV)
[10] = 4 mg/kg IV q12h, geometric mean (% CV)
[11] = 6 mg/kg IV (loading dose), geometric mean (% CV)
[12] = 200 mg oral q12h, geometric mean (% CV)
[13] = 300 mg oral q12h, geometric mean (% CV)
[14] = 400 mg oral (loading dose), geometric mean (% CV)

CYP2C9, sequence (P11712 whole entry): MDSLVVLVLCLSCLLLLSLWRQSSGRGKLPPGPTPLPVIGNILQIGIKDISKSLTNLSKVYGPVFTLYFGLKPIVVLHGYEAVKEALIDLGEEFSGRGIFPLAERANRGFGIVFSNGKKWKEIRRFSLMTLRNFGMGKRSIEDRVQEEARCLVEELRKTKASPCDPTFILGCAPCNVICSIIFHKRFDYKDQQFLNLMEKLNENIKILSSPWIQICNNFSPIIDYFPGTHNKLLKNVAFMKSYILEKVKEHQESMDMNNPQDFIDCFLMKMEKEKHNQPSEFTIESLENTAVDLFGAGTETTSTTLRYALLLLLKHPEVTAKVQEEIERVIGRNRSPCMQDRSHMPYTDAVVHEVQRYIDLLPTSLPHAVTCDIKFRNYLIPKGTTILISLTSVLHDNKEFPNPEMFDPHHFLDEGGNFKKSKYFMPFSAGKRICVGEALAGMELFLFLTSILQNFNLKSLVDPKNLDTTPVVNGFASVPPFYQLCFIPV
CYP3A (Homo sapiens, UniProt P08684), sequence (P08684 2-503): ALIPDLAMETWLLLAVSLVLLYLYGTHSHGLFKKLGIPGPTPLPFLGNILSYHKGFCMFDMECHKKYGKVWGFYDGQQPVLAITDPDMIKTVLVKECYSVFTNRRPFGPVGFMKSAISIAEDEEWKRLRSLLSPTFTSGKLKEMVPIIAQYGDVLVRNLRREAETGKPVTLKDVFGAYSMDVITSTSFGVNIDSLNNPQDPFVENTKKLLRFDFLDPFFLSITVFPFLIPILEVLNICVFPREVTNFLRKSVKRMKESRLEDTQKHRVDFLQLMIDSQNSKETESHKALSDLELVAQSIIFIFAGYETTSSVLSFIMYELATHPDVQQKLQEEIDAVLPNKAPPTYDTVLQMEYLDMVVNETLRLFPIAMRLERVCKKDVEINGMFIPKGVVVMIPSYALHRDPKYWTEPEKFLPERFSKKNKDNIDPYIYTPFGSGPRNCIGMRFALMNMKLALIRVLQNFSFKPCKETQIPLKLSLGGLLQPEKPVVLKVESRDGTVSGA

In the case of C[C@@H](c1nc[n+]([O-])cc1F)[C@](O)(Cn1cncn1)c1ccc(F)cc1F [N-oxide], the “inhibition of metabolic activity of CYP2C9” value [1] is listed as “inhibits”, the “inhibition of metabolic activity of CYP3A4” value [2] is listed as “inhibits” and the “share of circulating radiolabeled metabolites in plasma” value ([3]; after radiolabeled voriconazole) is listed as 72%. For the same compound, the antifungal activity [4] was “minimal antifungal activity”.

In the case of C[C@@H](c1ncncc1F)[C@](O)(Cn1cncn1)c1ccc(F)cc1F [Voriconazole, (2R,3S)-2-(2,4-difluro-phenyl)-3-(5-flouro-4-pyrimidinyl)-1 (1H-1,2,4-triazol-1-yl)2-butanol], the Imax oral ([5]; based on 200 mg q12h from VFEND label) is listed as 6.61 µM, the Imax oral ([5]; based on Cmax from Anderson 2017) is listed as 3.50 µM and the pKi [6] is listed as greater than 6.30. The pKi [7] was 6.18, the AUC12 [3, 9] was 13.7 (53) μg:h/mL and the Cmax [3, 9] was 3.03 (25) μg/mL. The AUC12 [3, 10] was 33.9 (54) μg:h/mL, the Cmax [3, 10] was 4.77 (36) μg/mL and the AUC12 [3, 11] was 13.9 (32) μg:h/mL. The Cmax [3, 11] was 3.13 (20) μg/mL, the AUC12 ([3]; 200 mg oral q12h, adults, geometric mean (% CV)) was 12.4 (78) μg · h/mL and the AUC12 [3, 12] was 12.4 (78) μg:h/mL. The Cmax [3, 12] was 2.31 (48) μg/mL, the AUC12 ([3]; 300 mg oral q12h, adults, geometric mean (% CV)) was 34.0 (53) μg · h/mL and the AUC12 [3, 13] was 34.0 (53) μg:h/mL. The Cmax [3, 13] was 4.74 (35) μg/mL, the AUC12 ([3]; 400 mg oral (loading dose), adults, geometric mean (% CV)) was 9.31 (38) μg · h/mL and the AUC12 [3, 14] was 9.31 (38) μg:h/mL. For the same compound, the Cmax [3, 14] was 2.30 (19) μg/mL, the “reduction of mean AUC with high-fat meals” value ([3]; oral suspension) was 37% and the “reduction of mean AUC with high-fat meals” value ([3]; tablet) was 24%. For the same compound, the Cmax ([3]; oral 200 mg dose) was 2310 ng/mL, the “volume of distribution at steady state” value ([3]; oral or IV administration) was 4.6 L/kg and the oral bioavailability ([3]; population PK analysis, healthy subjects (N=207)) was 96%. The Plasma protein binding [8] was 58%.
